Reference: ChEMBL document CHEMBL5143679, “Discovery of 3, 6-disubstituted isobenzofuran-1(3H)-ones as novel inhibitors of monoamine oxidases” (Bioorg Med Chem Lett, 2022)

Molecular target: T1, Amine oxidase [flavin-containing] A (Rattus norvegicus, UniProt P21396)
T1 sequence (P21396 whole entry): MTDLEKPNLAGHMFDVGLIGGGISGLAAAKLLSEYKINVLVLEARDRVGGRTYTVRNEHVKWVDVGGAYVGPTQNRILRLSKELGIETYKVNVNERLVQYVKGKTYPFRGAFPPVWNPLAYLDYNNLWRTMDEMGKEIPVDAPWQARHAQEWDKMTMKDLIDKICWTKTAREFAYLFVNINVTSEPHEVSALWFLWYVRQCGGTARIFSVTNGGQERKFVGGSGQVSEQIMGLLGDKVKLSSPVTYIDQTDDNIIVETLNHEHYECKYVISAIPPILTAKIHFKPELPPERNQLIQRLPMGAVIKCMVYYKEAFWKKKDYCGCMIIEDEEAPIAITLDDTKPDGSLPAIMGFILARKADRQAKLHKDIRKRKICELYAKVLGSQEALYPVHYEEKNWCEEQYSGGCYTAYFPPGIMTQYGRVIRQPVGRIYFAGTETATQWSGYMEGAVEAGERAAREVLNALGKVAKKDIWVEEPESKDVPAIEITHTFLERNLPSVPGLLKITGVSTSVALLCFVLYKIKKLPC
Assay: Inhibition of Sprague-Dawley rat MAO-A

IC50: 2.8 µM
Structure (SMILES): C[C@H](NCc1ccc(OCc2cccc(F)c2)cc1)C(N)=O [SAFINAMIDE]
